# Reference: patent US12209081B2 (Katholieke Universiteit Leuven, priority 2020, dated 2025)
# Biological target: mouse TRPM3α2 (mTRPM3) ion channel (Mus musculus (Mouse), UniProt J9SQF3)
# Assay: TRPM3 ion channel driven Ca2+ uptake, Fluo-4 AM assay, mTRPM3alpha2 overexpressing flip-in HEK293 cells stimulated with pregnenolone sulfate
# Format: cell-based
# Summary of the method: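 Flip-in HEK293 cells loaded with Fluo-4 AM were added to plates holding compound plus 50 μM pregnenolone sulfate in Ca2+-containing Krebs buffer. Fluorescence (ex 485/em 535 nm) read directly after cell addition; % inhibition relative to PS-stimulated vehicle and positive-control inhibitor.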
# [1] = PS (50 μM) stimulated, cpds. 500-599
# [2] = PS (50 μM) stimulated, cpds. 400-499
# [3] = PS (50 μM) stimulated, cpd 001-199
# [4] = PS (50 μM) stimulated, cpds. 667-751
# [5] = PS (50 μM) stimulated, cpds. 608-666
# mouse TRPM3α2 (mTRPM3) ion channel, sequence (J9SQF3 other isoform, or with tags, fused parts or gaps): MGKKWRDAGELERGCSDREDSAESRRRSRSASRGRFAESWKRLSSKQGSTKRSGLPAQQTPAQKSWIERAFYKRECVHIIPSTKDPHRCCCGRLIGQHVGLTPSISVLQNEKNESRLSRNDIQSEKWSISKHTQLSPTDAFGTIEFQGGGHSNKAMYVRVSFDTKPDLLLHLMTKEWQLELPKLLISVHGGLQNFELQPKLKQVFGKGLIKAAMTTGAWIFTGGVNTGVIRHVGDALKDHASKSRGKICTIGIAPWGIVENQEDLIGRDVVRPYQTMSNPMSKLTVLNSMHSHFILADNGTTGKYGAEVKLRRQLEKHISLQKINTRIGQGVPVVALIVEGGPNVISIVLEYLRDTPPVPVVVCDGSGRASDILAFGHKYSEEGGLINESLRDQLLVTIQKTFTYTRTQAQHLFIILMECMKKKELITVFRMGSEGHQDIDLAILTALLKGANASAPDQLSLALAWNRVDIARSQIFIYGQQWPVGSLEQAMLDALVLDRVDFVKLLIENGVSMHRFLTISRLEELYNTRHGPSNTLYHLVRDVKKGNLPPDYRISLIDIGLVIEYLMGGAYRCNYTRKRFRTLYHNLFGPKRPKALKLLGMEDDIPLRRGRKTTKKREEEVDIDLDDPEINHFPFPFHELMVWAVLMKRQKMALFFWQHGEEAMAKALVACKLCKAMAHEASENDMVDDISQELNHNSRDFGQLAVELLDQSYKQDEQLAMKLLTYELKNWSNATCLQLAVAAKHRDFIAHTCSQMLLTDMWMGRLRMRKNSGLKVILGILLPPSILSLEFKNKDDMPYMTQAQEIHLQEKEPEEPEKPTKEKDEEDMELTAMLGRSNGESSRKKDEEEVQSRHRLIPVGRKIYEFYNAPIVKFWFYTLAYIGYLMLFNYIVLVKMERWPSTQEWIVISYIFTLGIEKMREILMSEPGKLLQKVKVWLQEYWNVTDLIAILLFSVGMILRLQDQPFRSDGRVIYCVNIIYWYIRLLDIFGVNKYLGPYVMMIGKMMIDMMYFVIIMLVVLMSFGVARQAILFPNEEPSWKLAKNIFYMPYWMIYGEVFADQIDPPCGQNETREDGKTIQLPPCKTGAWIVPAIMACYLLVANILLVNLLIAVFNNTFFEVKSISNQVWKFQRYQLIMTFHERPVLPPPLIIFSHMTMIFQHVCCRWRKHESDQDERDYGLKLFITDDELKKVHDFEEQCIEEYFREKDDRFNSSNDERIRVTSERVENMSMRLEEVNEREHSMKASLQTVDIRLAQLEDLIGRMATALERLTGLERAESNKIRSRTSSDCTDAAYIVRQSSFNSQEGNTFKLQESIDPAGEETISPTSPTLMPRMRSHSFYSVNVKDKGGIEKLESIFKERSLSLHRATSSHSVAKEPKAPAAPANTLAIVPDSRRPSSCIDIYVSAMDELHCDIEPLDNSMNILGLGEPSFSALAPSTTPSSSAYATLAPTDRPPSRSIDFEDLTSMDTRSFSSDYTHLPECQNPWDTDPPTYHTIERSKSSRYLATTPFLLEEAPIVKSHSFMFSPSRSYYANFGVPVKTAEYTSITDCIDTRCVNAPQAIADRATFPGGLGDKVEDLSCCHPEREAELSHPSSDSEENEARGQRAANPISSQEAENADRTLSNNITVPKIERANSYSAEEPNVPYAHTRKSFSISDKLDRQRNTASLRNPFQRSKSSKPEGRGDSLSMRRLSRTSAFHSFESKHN
smiles,measurement,setting,value
"Cc1coc(COc2ccc3oc(C)c(C(=O)NC4CCNCC4(F)F)c3c2)n1 (single isomer, unassigned) [cpd 551-En 2]",IC50,[1],1 to 20 µM
"Cc1oc2ccc(OCc3ccnn3C)cc2c1C(=O)NC(C)(C)CO [compound 482, N-(1-hydroxy-2-methylpropan-2-yl)-2-methyl-5-((1-methyl-1H-pyrazol-5-yl)methoxy)benzofuran-3-carboxamide]",IC50,[2],< 1 µM
"Cc1oc2ccc(OCc3ccccn3)cc2c1C(=O)NC1(CO)CCOC1 (single isomer, unassigned) [cpd 534-En 1]",IC50,[1],< 1 µM
"Cc1oc2ccc(OCc3cn(C)nn3)cc2c1C(=O)NC1CCNCC1(F)F (single isomer, unassigned) [cpd 540-En 2]",IC50,[1],> 20 µM
"Cc1ncsc1COc1ccc2oc(C)c(C(=O)NC3(CO)CCCOC3)c2c1 (single isomer, unassigned) [cpd 532-En 1]",IC50,[1],< 1 µM
"Cc1oc2ccc(OCC3COC3)cc2c1C(=O)N[C@@H](CO)C(N)=O [compound 292, (S)-N-(1-amino-3-hydroxy-1-oxopropan-2-yl)-2-methyl-5-(oxetan-3-ylmethoxy)benzofuran-3-carboxamide]",IC50,"PS 50 μM, cpds 200-299",< 1 µM
"Cc1ncsc1COc1ccc2oc(C)c(C(=O)NC3COCC3O)c2c1 (single isomer, unassigned; dia 1) [162-Dia 1-En1]",IC50,[3],< 1 µM
"Cc1ncc(COc2ccc3oc(C(F)F)c(C(=O)N[C@@H](CO)C(N)=O)c3c2)o1 [compound 746, (S)-N-(1-amino-3-hydroxy-1-oxopropan-2-yl)-2-(difluoromethyl)-5-((2-methyloxazol-5-yl)methoxy)benzofuran-3-carboxamide]",IC50,[4],< 1 µM
"Cc1oc2ccc(OCc3scnc3C(F)(F)F)cc2c1C(=O)N[C@@H](CO)C(N)=O [compound 694, (S)-N-(1-Amino-3-hydroxy-1-oxopropan-2-yl)-2-methyl-5-((4-(trifluoromethyl)thiazol-5-yl)methoxy)benzofuran-3-carboxamide]",IC50,[4],< 1 µM
"Cc1cnc(COc2ccc3oc(C)c(C(=O)NC4CCNCC4(F)F)c3c2)s1 (single isomer, unassigned) [cpd 555-En 2]",IC50,[1],1 to 20 µM
"Cc1ncsc1COc1cc2c(C(=O)NC3(CO)COC3)c(C)oc2cc1F [compound 362, 6-fluoro-N-(3-(hydroxymethyl)oxetan-3-yl)-2-methyl-5-((4-methylthiazol-5-yl)methoxy)benzofuran-3-carboxamide]",IC50,"PS 50 μM, cpds 300-399",< 1 µM
"Cc1oc2ccc(OCc3ccnn3C)cc2c1C(=O)NC1COCC1(F)F (single isomer, unassigned) [cpd 642-En 1]",IC50,[5],< 1 µM
"Cc1oc2ccc(OCc3cccnc3C(F)(F)F)cc2c1C(=O)NC1CCNCC1(F)F (single isomer, unassigned) [cpd 546-En 1]",IC50,[1],< 1 µM
"Cc1ncsc1COc1ccc2oc(C)c(C(=O)N[C@@H]3C(=O)NC[C@H]3O)c2c1 [compound 392, N-((3S,4R)-4-hydroxy-2-oxopyrrolidin-3-yl)-2-methyl-5-((4-methylthiazol-5-yl)methoxy)benzofuran-3-carboxamide]",IC50,"PS 50 μM, cpds 300-399",< 1 µM
"Cc1oc2ccc(OCc3cccnc3N3CCC3)cc2c1C(=O)NC1(CO)CCOCC1 [compound 337, 5-((2-(azetidin-1-yl)pyridin-3-yl)methoxy)-N-(4-(hydroxymethyl)tetrahydro-2H-pyran-4-yl)-2-methylbenzofuran-3-carboxamide]",IC50,"PS 50 μM, cpds 300-399",< 1 µM
"Cc1oc2ccc(OCc3cccnc3C(F)(F)F)c(C)c2c1C(=O)NC1CCNCC1(F)F (single isomer, unassigned) [cpd 538-En 1]",IC50,[1],1 to 20 µM
"COc1ncccc1COc1ccc2oc(C)c(C(=O)NC3CNCC3(F)F)c2c1 (stereo not shown) [compound 663, N-(4,4-difluoropyrrolidin-3-yl)-5-((2-methoxypyridin-3-yl)methoxy)-2-methylbenzofuran-3-carboxamide]",IC50,[5],< 1 µM
"Cc1ccc(COc2ccc3oc(C)c(C(=O)NC4CCOC4)c3c2)cn1 (stereo not shown) [compound 033, 2-methyl-5-((6-methylpyridin-3-yl)methoxy)-N-(tetrahydrofuran-3-yl)benzofuran-3-carboxamide]",IC50,[3],> 20 µM
"Cc1ncsc1COc1ccc2oc(C)c(C(=O)N(C)C3(CO)COC3)c2c1 [compound 529, N-(3-(hydroxymethyl)oxetan-3-yl)-N.2-dimethyl-5-((4-methylthiazol-5-yl)methoxy)benzofuran-3-carboxamide]",IC50,[1],< 1 µM
"Cc1oc2ccc(OCc3nc(C(F)(F)F)cs3)cc2c1C(=O)NC1CCOC1 (stereo not shown) [compound 057, 2-methyl-N-(tetrahydrofuran-3-yl)-5-((4-(trifluoromethyl)thiazol-2-yl)methoxy)benzofuran-3-carboxamide]",IC50,[3],> 20 µM
"Cc1oc2ccc(OCc3cccnc3C(F)(F)F)cc2c1C(=O)NC1(CCO)CCC1 [compound 127, N-(1-(2-hydroxyethyl)cyclobutyl)-2-methyl-5-((2-(trifluoromethyl)pyridin-3-yl)methoxy)benzo-furan-3-carboxamide]",IC50,[3],< 1 µM
"Cc1csc(COc2ccc3oc(C)c(C(=O)NC4CCNC4=O)c3c2)n1 (stereo not shown) [compound 043, 2-methyl-5-((4-methylthiazol-2-yl)methoxy)-N-(2-oxopyrrolidin-3-yl)benzofuran-3-carboxamide]",IC50,[3],< 1 µM
"Cc1cnc(COc2ccc3oc(C)c(C(=O)NC4CCNCC4(F)F)c3c2)cn1 (single isomer, unassigned) [cpd 554-En 1]",IC50,[1],< 1 µM
"CNC(=O)C1(NC(=O)c2c(C)oc3ccc(OCc4scnc4C)cc23)COC1 [compound 324, 2-methyl-N-(3-(methylcarbamoyl)oxetan-3-yl)-5-((4-methylthiazol-5-yl)methoxy)benzofuran-3-carboxamide]",IC50,"PS 50 μM, cpds 300-399",< 1 µM
"Cc1ncsc1COc1ccc2oc(C(F)F)c(C(=O)NC3CCN(CCO)C3=O)c2c1 (single isomer, unassigned) [198-En 1, 2-(difluoromethyl)-N-(1-(2-hydroxyethyl)-2-oxopyrrolidin-3-yl)-5-((4-methylthiazol-5-yl) -methoxy)benzofuran-3-carboxamide]",IC50,[3],1 to 20 µM
"Cc1ncsc1COc1ccc2oc(C)c(C(=O)NC3COCC3(F)F)c2c1 (single isomer, unassigned) [cpd 646-En 1]",IC50,[5],< 1 µM
"COc1ncccc1COc1ccc2oc(C)c(C(=O)N[C@@H](CO)C(N)=O)c2c1 [compound 715, (S)-N-(1-amino-3-hydroxy-1-oxopropan-2-yl)-5-((2-methoxypyridin-3-yl)methoxy)-2-methylbenzofuran-3-carboxamide]",IC50,[4],< 1 µM
"COc1ncccc1COc1cc2c(C(=O)NC3(CO)CCOCC3)c(C)oc2cc1F [compound 364, 6-fluoro-N-(4-(hydroxymethyl)tetrahydro-2H-pyran-4-yl)-5-((2-methoxypyridin-3-yl)methoxy)-2-methylbenzofuran-3-carboxamide]",IC50,"PS 50 μM, cpds 300-399",< 1 µM
"Cc1oc2ccc(OCc3cccnc3O)cc2c1C(=O)NC1(CO)CC1 [compound 420, N-(1-(hydroxymethyl)cyclopropyl)-5-((2-hydroxypyridin-3-yl)methoxy)-2-methylbenzofuran-3-carboxamide]",IC50,[2],< 1 µM
"Cc1oc2ccc(OCc3ccnn3C(C)C)cc2c1C(=O)N[C@@H](CO)C(N)=O [compound 676, (S)-N-(1-amino-3-hydroxy-1-oxopropan-2-yl)-5-((1-isopropyl-1H-pyrazol-5-yl)methoxy)-2-methylbenzofuran-3-carboxamide]",IC50,[4],< 1 µM
"Cc1ncsc1COc1cc2c(C(=O)NC3CCNCC3(F)F)c(C)oc2cc1F (single isomer, unassigned) [cpd 572-En 1]",IC50,[1],< 1 µM
